CCCCCCCCCCCCCCCc1cccc(O)c1
Details | solubility (mole fraction)
in acetone, 289.08 K | 0.253
in acetone, 291.32 K | 0.272
in acetone, 293.55 K | 0.309
in acetone, 295.54 K | 0.33
in acetone, 297.54 K | 0.351
in acetone, 299.33 K | 0.373
in ethanol, 291.47 K | 0.158
in ethanol, 293.83 K | 0.181
in ethanol, 295.56 K | 0.199
in ethanol, 297.55 K | 0.228
in ethanol, 299.15 K | 0.252
in ethanol, 301.28 K | 0.278
in ethyl acetate, 290.83 K | 0.236
in ethyl acetate, 295.86 K | 0.299
in ethyl acetate, 297.3 K | 0.323
in ethyl acetate, 300.12 K | 0.352
in ethyl acetate, 302.14 K | 0.38
in n-butanol, 293.55 K | 0.239
in n-butanol, 295.36 K | 0.263
in n-butanol, 297.33 K | 0.282
in n-butanol, 299.16 K | 0.302
in n-butanol, 300.86 K | 0.321
in n-butanol, 302.94 K | 0.349
in tetrachloromethane, 288.46 K | 0.0912
in tetrachloromethane, 290.45 K | 0.101
in tetrachloromethane, 292.51 K | 0.124
in tetrachloromethane, 294.42 K | 0.15
in tetrachloromethane, 296.55 K | 0.18
in tetrachloromethane, 298.36 K | 0.21
in tetrachloromethane, 300.24 K | 0.242
in toluene, 295.25 K | 0.122
in toluene, 297.45 K | 0.14
in toluene, 299.2 K | 0.16
in toluene, 301.23 K | 0.186
in toluene, 303.66 K | 0.228
in toluene, 305.47 K | 0.262

Source: BigSolDB 2.1
